Values quoted from earlier work, collected in patent publication US20230346789A1, “METHODS OF TREATING ENHANCING BRAIN TUMORS USING COMBINATION THERAPY” (MSD International GmbH, priority 2022, published 2023).
Like-named read-outs stand apart in the source and are kept apart here.

Experiments:
[1] = system: Recurrent or Progressive Glioma; details: monotherapy

Compound	clinical efficacy ([1]; patients with non-enhancing gliomas)	clinical efficacy ([1]; patients with recurrent enhancing gliomas)	preclinical safety profile
C[C@@H](Nc1nc(N[C@H](C)C(F)(F)F)nc(-c2cccc(Cl)n2)n1)C(F)(F)F [vorasidenib, 6-(6-chloropyridin-2-yl)-N^2,N^4-bis((R)-1,1,1-trifluoropropan-2-yl)-1,3,5-triazine-2,4-diamine]	clinical activity and prolonged disease control	only limited efficacy	
pembrolizumab: humanized immunoglobulin G4 (IgG4) monoclonal antibody blocking the programmed death receptor-1 (PD1)			acceptable
